According to patent US11332771B2, “Serum-free cell culture medium” (Regeneron Pharmaceuticals, Inc., priority 2013, dated 2022):
Structures can show the parent of a compound that is named as a salt. Where two headings read alike, the source gives them in different places.

Assays:
[1] = test system: CHO-K1 derived cell line; conditions: for Average seven-day antibody titer: 100 mg/L ornithine.HCl, with or without 115 mg/L putrescine.2HCl
Procedure: We examined the expression and secretion of recombinant IgG by a CHO-K1 derived cell line. In this experiment, the average antibody titer was determined at day seven in culture under various media formats.

[2] = test system: recombinant antibody producing cell line derived from CHO K1; test: Antibody titer in Medium 3 with various amounts of ornithine.HCl, 50 mL TubeSpin Bioreactors; type: cell-based, Chinese hamster; conditions: Medium 3, three days, all three levels of ornithine supplementation, N=3
Description: The results are depicted in Table 6.

[3] = test system: recombinant antibody producing cell line derived from CHO K1 cells; test: Cell doubling time in logarithmic growth phase, seed train cultures passaged over 14 days; type: cell-based, Chinese hamster; conditions: ornithine.HCl 100 mg/L, with or without putrescine.2HCl 115 mg/L
Procedure: The doubling time of a recombinant antibody producing cell line derived from CHO K1 cells in logarithmic growth phase was determined under various cell culture media conditions. Seed train cultures were passaged at 36.5° C. in 250 mL shaker flasks over a period of 14 days in each of three separate media: Medium 1, Medium 2, and Medium 2 containing soy hydrolysate (Medium 2+ Soy). Aliquots of 1 mL were removed from each condition on Day 0 and at the time of seed train passage (every 2 or 3 days), and viable cell counts were conducted using trypan blue exclusion on a CDV™ instrument (Nova Biomedical).

Q: With `NCCC[C@H](N)C(=O)O` [Ornithine, L-ornithine.HCl] as the compound, how does the “Average seven-day antibody titer” value ([1]; Medium 1) read?
A: 0.94 g/L

Q: What about the “Average seven-day antibody titer” value ([1]; Medium 2 + Soy) of the same compound?
A: 0.98 g/L

Q: What about the “Average seven-day antibody titer” value ([1]; Medium 2) of the same compound?
A: 0.65 g/L

Q: And the “Increase in protein titer” value ([1]; day seven, in all cases (Medium 1, Medium 2, Medium 2+ Soy), versus low putrescine 0.4 mg/L)?
A: at least about two-fold

Q: What about the “Improvement of antibody titer on the average” value [2] of the same compound?
A: more than 50%

Q: What about the Cell doubling time ([3]; Medium 1) of the same compound?
A: 23 h

Q: And the Cell doubling time ([3]; Medium 2 + Soy)?
A: 20.5 h

Q: And the Cell doubling time ([3]; Medium 2)?
A: 21 h
